The values below are quoted from earlier work in patent US20230131493A1, “METHODS OF TREATING AGITATION ASSOCIATED WITH ALZHEIMER'S DISEASE” (Avanir Phrmaceuticals Inc., priority 2021, published 2023).

For data set [1] the following is noted: a P-glycoprotein substrate.
Another data set addresses sigma-1 receptor (Homo sapiens, UniProt Q99720).

Structures can show the parent of a compound that is named as a salt.

Sequence of sigma-1 receptor (Q99720 whole entry, species assumed): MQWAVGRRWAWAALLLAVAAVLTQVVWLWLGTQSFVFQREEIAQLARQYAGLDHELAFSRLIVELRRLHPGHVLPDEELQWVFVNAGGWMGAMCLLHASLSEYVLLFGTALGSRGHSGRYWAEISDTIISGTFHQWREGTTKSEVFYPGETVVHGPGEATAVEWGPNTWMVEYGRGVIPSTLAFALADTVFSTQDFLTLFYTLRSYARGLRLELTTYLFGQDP

For `C=C[C@H]1CN2CC[C@H]1C[C@@H]2[C@@H](O)c1ccnc2ccc(OC)cc12.C=C[C@H]1CN2CC[C@H]1C[C@@H]2[C@@H](O)c1ccnc2ccc(OC)cc12.O=S(=O)(O)O` [Quinidine, quinidine sulfate], the “serum digoxin levels on concomitant administration with digoxin” value in data set [1] was “may be as much as doubled”. On to `[2H]C([2H])([2H])Oc1ccc2c(c1)[C@]13CCCC[C@@H]1[C@H](C2)N(C([2H])([2H])[2H])CC3` [d6-DM, deuterated [d6]-dextromethorphan hydrobromide], for which the receptor binding entry at sigma-1 receptor is on record as “binds to the sigma-1 receptor”.
